Format in all cases: cell-based
The test system of one experiment is HIV-1 strain HTLV-IIIB. Kind of experiment: Inhibition of HIV-1 replication in MT4 cells (MTT assay). To be noted: HIV-1 IIIB 0.005 MOI, six days. On the procedure:
The antiviral effect of N-dealkyl-trans-flupenthixol and N-dealkyl-trans-clopenthixol was studied by checkerboard studies exposing HIV infected cells to 0-3 μM of trans-clopenthixol. Each experiment was repeated in triple duplicate. MIC values represent the mean values of two separate experiments.
The HIV-1 strain HTLV-IIIB were propagated in H9 cells at 37° C., 5% CO2 using RPMI 1640 with 10% heat-inactivated foetal calf serum (FCS) and antibiotics (growth medium). Culture supernatant was filtered ([…]), aliquoted, and stored at −80° C. until use. The HIV-1 strain was obtained from NIH AIDS Research and Reference Program.
Compounds were examined for possible antiviral activity against strain IIIB of HIV-1 using MT4 cells as target cells. MT4 cells were incubated with virus (0.005 MOI) and growth medium containing the test dilutions of compound(s) for six days in parallel with virus-infected and uninfected control cultures without compound added. Expression of HIV in the cultures was indirectly quantified using the MTT assay as previously described. Compounds mediating less than 30% reduction of HIV expression were considered without biological activity. […] The 50% inhibitory concentration was determined by interpolation from the plots of percent inhibition versus concentration of compound. […]

For experiment [1], the system named is clinically relevant resistant bacterial isolate S. Aureus. Briefly: Growth inhibition by cis/trans combinations, resistant isolate S. Aureus. As to conditions: Trans-compound 0.5 μg/ml, Cis-compound 0 μg/ml. As to the method:
(§1) Cell growth was tested using the Minimal Inhibitory Concentration (MIC) susceptibility tests by use of the microdilution broth method in accordance to the NCCLS Guidelines (NCCLS Guidelines, Methods for Dilution Antimicrobial Susceptibility Tests for Bacteria That Grow Aerobically; Approved Standard, Sixth Edition, Volume 23; Number 2). The minimum inhibitory concentration (MIC), is defined ad the lowest concentration of drug which inhibits growth of the test organism, in the sense that no visible growth is detected (total inhibition of growth). In example 2 MIC of the compounds used on fungal microorganisms was determined from the IC90 measurements according to NCCLS Guidelines.
A log phase culture of bacteria was diluted with fresh pre-warmed Mueller-Hinton medium and adjusted to a defined OD at 600 nm in order to give a final concentration of 1×10^4-5 bacteria/ml medium. The bacterial culture was transferred to microtiter-plates and culture was added to each well. Drug was added to the bacterial culture in the wells as two-fold dilution series of drug in order to give final concentrations ranging from 0.03 to 128 μg/ml. Trays were incubated at 37° C. by shaking in a robot analyzer, PowerWavex, software KC^4′ Kebo.Lab, Copenhagen, for 16 h and optical densities were measured at 600 nm during the incubation time in order to record growth curves. […]

The subject of experiment [2] is Staphylococci, Micrococci. Including MRSA. Briefly: MIC/IC90 broad spectrum, Staphylococci and Micrococci. To be noted: 30 strains, 20 resistant (20 MRSA). As to the method:
as §1
A log phase culture of bacteria was diluted with fresh pre-warmed Mueller-Hinton medium and adjusted to a defined OD at 600 nm in order to give a final concentration of 1×10^4-5 bacteria/ml medium. The bacterial culture was transferred to microtiter-plates and culture was added to each well. Drug was added to the bacterial culture in the wells as two-fold dilution series of drug in order to give final concentrations ranging from 0.03 to 128 μg/ml. Trays were incubated at 37° C. by shaking in a robot analyzer, PowerWavex, software KC^4′ Kebo.Lab, Copenhagen, for 16 h and optical densities were measured at 600 nm during the incubation time in order to record growth curves. Wells containing bacterial culture without drug were used as controls to ensure correct inoculum size and bacterial growth during the incubation. Cultures were tested in order to detect contaminations. Each experiment was repeated in triplicate. MIC values represent the mean values of two separate triplicate experiments. Intra- and interassay variation was <5%.
Inhibition 90 (IC90) is defined as: OD responding a 90% growth inhibition.
A broad spectrum of bacteria were cultured and assayed as described above for susceptibility towards N-dealkyl-clopenthixol.

Experiment [3] relates to Candida albicans clinical isolate. Kind of experiment: MIC (90% growth inhibition), broth microdilution NCCLS M27-A, Candida albicans. To be noted: strain 1. Candida albicans FR (fluconazole resistant). On the procedure: as §1
The antibacterial effect of demethylated/dealkylated phenothiazine or thioxanthene compounds were studied by growth inhibition studies exposing cells to 0-32 μg/ml of drug. Each experiment was repeated in triplicate. MIC values represent the mean values of two separate triplicate experiments.
4 clinical isolates of Candida sp. (including 3 fluconazole resistant isolates) were subcultured for 24 h on Sabouraud glucose agar before susceptibility testing. Broth microdilution tests were performed according to NCCLS document M27-A (Ref: National Committee for Clinical Laboratory Standards. (1997). Reference Method for Broth Dilution Antifungal Susceptibility Testing of Yeasts: Approved Standard M27-A. NCCLS, Wayne, Pa.). Microtitre plates were read spectrophotometrically at 530 nm, after mixing the wells by pipetting to resuspend yeast sediments. In this experiment, the MIC was defined as the lowest drug dilution resulting in 90% growth inhibition.
(Dilution methods test growth across graded concentrations, often in twofold steps.)

Experiment [4] concerns Candida glabrata Multiresistant isolate. Briefly: MIC of cis- and trans-forms, Candida glabrata multiresistant isolate. As to conditions: Example 4. On the procedure: as §1
Cultured microorganisms were assayed as described above. Cis- and trans-isomers of N-dealkyl-clopenthixol was added to the cultures.

Values after ≈ are worked out from the molar mass of the structure shown.

In general, EC50 refers to the concentration that produces a half-maximal response. As a reminder, the MIC is the least concentration at which growth counts as inhibited. `Clc1ccc2c(c1)/C(=C/CCN1CCNCC1)c1ccccc1S2` [N-dealkyl-trans-clopenthixol, trans-1-(3-(2-chloro-thioxanthen-9-ylidene)propyl)piperazine]: in the experiment with HIV-1 strain HTLV-IIIB, the concentration for a half-maximal effect (EC50) turned out to be 2000 nM. The Growth inhibition in experiment [1] was 100%. In experiment [2], the “IC90 (mean)” value came out at 0.5 µg/mL (≈ 1.4 µM), the “MIC (mean)” value was found to be 1 µg/mL (≈ 2.8 µM) and the MIC range lay in the range of 0.5 to 2 µg/mL. Besides, the MIC in experiment [3] is 1 µg/mL (≈ 2.8 µM). Further, the MIC in experiment [4] came out at 1.0 µg/mL.
